In patent publication US20240199584A1, “KRAS INHIBITORS” (Bristol-Myers Squibb Company, priority 2022, published 2024) one finds IC50 data, which are given here for 19 compounds.

Assay [1] deals with T1, KRAS G12D (Homo sapiens, UniProt P01116, G12D). Description: biochemical.
Description: Recombinant GST-RAF1 RBD (Ras binding domain) (9 nM) was added, followed by the addition of SA-Tb (0.25 nM), and the reaction mixture was incubated for 3 hours. HTRF (Homogeneous Time-Resolved Fluorescence) signal was measured (PerkinElmer Envision), the signal ratio (λem 520/λem 495) was calculated, and IC50 values were calculated from the dose-response curve.
Assay [2] has as its target T1, KRAS G12D. Description: biochemical. The source holds these as a separate data set.
Description: BIODIPY-labeled GDP (BIODIPY: dipyrrometheneboron difluoride) (400 nM) and recombinant SOS (son of sevenless protein) (10 nM) were added, and the reaction was incubated for 30 minutes. HTRF signal was measured (PerkinElmer Envision), the signal ratio (λem 520/λem 495) was calculated, and IC50 values were calculated from the dose-response curve.
Another assay concerns the target T2, KRAS G12V (Homo sapiens, UniProt P01116, G12V).
T2 construct: expressed in transfected cells
Description: Cellular KRAS:RAF Disruption Assay (NanoBRET), KRAS G12V. The format is cell-based. Particulars: HEK293 T cells co-expressing RAF1 and KRAS G12V, 24 hours; read-out: RAS::RAF binding via NanoBRET IC50, KRAS G12V. The procedure: (§1) Cellular KRAS:RAF Disruption Assay
(§2) Stable cell lines (HEK293 T) were generated to co-express RAF1 and mutant or wild type KRAS, as indicated, using the BiBRET vector (Promega). Engineered cell lines were suspended in media (OptiMEM, […]), plated in 384-well plates (8000 cells/well), and allowed to rest for 1.5 hours. Cells were treated with compounds for 24 hours, and NanoBRET NanoGlo substrate (Promega) was added per the manufacturer's instructions.

Another assay concerns the target T3, KRAS G12C (Homo sapiens, UniProt P01116, G12C).
T3 construct: expressed in transfected cells
Description: Cellular KRAS:RAF Disruption Assay (NanoBRET), KRAS G12C. The format is cell-based. The settings on record: HEK293 T cells co-expressing RAF1 and KRAS G12C, 24 hours; read-out: RAS::RAF binding via NanoBRET IC50, KRAS G12C. The procedure:
as §1, §2

In the next assay the target is T4, KRAS G12A (Homo sapiens, UniProt P01116, G12A).
T4 construct: expressed in transfected cells
T4 sequence (P01116 1-188 isoform P01116-2 G12A): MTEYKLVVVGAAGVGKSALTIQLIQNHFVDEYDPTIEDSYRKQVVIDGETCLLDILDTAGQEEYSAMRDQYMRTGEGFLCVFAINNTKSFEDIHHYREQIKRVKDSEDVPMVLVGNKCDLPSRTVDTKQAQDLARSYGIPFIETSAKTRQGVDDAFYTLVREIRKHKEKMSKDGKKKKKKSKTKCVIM
The assay can be described thus: Cellular KRAS:RAF Disruption Assay (NanoBRET), KRAS G12A. The format is cell-based. The settings on record: HEK293 T cells co-expressing RAF1 and KRAS G12A, 24 hours; read-out: RAS::RAF binding via NanoBRET IC50, KRAS G12A. The procedure: as §1, §2
A general note: In BRET a luciferase serves as donor, and the signal depends on an acceptor being close.

Where two headings read alike, the source gives them in different places.

T1 sequence (P01116 1-188 isoform P01116-2 G12D): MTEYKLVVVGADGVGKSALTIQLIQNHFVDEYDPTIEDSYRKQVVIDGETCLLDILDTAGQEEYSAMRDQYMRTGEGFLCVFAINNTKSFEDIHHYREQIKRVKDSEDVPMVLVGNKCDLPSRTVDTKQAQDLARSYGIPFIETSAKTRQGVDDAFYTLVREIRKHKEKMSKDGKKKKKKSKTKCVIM
T2 sequence (P01116 1-188 isoform P01116-2 G12V): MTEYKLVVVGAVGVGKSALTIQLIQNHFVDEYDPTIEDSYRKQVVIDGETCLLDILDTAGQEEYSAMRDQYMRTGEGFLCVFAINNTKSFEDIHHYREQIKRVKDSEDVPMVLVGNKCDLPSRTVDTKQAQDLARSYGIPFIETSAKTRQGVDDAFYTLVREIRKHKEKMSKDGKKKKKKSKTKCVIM
T3 sequence (P01116 1-188 isoform P01116-2 G12C): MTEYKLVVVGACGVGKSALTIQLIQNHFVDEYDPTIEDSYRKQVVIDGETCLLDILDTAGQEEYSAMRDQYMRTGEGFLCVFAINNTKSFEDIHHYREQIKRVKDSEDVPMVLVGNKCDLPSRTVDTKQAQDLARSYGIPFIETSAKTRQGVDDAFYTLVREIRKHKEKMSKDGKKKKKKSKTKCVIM

With `C#Cc1c(F)ccc2cc(O)cc(-c3ncc4c(N5CCCC(C#N)C5)nc(OC[C@@]56CCCN5C[C@H](F)C6)nc4c3F)c12` (single isomer, unassigned) [Example 1-23], 2 nM corresponded to half-maximal inhibition at KRAS G12D [1] (IC50).

For `CN1CCC[C@@]2(COc3nc(N4CCC[C@@](C)(O)C4)c4cnc(-c5cn(C(F)F)c(=O)c6ccc(C(F)(F)F)cc56)c(F)c4n3)CCC[C@@H]12` [Example 10-8, 4-(2-{[(4aS,7aR)-1-methyl-octahydro-1H-cyclopenta[b]pyridin-4a-yl]methoxy}-8-fluoro-4-[(3R)-3-hydroxy-3-methylpiperidin-1-yl]pyrido[4,3-d]pyrimidin-7-yl)-2-(difluoromethyl)-6-(trifluoromethyl)-1,2-dihydroisoquinolin-1-one], the IC50 at KRAS G12D [1] and against KRAS G12D [2] was over 100000 nM throughout. In the case of `C#Cc1c(F)ccc2cc(O)cc(-c3ccc4c(N5CCCC(C#N)C5)nc(OC[C@@]56CCCN5C[C@H](F)C6)nc4c3F)c12` (single isomer, unassigned) [Example 2-41], half-maximal inhibition against KRAS G12D [1] (IC50) was put at 680 nM. As for `C#Cc1c(F)ccc2cc(O)cc(-c3ncc4c(N5CCOCC(CC#N)C5)nc(OC[C@]56CCC[C@H]5N(C)CCC6)nc4c3F)c12` (single isomer, unassigned) [Example 1-130], the IC50 against KRAS G12D [1] and against KRAS G12D [2] was 2 nM throughout.

Turning to `CN1CCC[C@@]2(COc3nc(N4CCC[C@@](C)(O)C4)c4cnc(-c5cn(C(F)F)c(=O)c6ccccc56)c(F)c4n3)CCC[C@@H]12` [Example 10-6, 4-(2-{[(4aS,7aR)-1-methyl-octahydro-1H-cyclopenta[b]pyridin-4a-yl]methoxy}-8-fluro-4-[(3R)-3-hydroxy-3-methylpiperidin-1-yl]pyrido[4,3-d]pyrimidin-7-yl)-2-(difluoromethyl)-1,2-dihydroisoquinolin-1-one], the IC50 against KRAS G12D [1] and at KRAS G12D [2] was over 100000 nM each time. As for `CN1CCC[C@@]2(COc3nc(N4CCC[C@@](C)(O)C4)c4cnc(-c5cc(O)ccc5C5CCC5)c(F)c4n3)CCC[C@@H]12` [Example 10-3, (3R)-1-(2-{[(4aS,7aR)-1-methyl-octahydro-1H-cyclopenta[b]pyridin-4a-yl]methoxy}-7-(2-cyclobutyl-5-hydroxyphenyl)-8-fluoropyrido[4,3-d]pyrimidin-4-yl)-3-methylpiperidin-3-ol], the half-inhibitory concentration (IC50) (in general, the concentration needed to halve the response being measured) on KRAS G12D [1] is 1060 nM; on KRAS G12D [2], under 2 nM. The matching figures for `C#Cc1c(F)ccc2cc(O)cc(-c3ccc4c(N5CCC(S(=O)(=O)N(C)C)CC5)nc(OC[C@@]56CCCN5C[C@H](F)C6)nc4c3F)c12` [Example 2-19, 1-(2-{[(2R,7aS)-2-fluoro-hexahydro-1H-pyrrolizin-7a-yl]methoxy}-7-(8-ethynyl-7-fluoro-3-hydroxynaphthalen-1-yl)-8-fluoroquinazolin-4-yl)-N,N-dimethylpiperidine-4-sulfonamide]: over 100000 nM and 2390 nM. Compound `C#Cc1c(F)ccc2cc(O)cc(-c3nc(OC)c4c(N5CCOC6CC65)nc(OC[C@@]56CCCN5C[C@H](F)C6)nc4c3F)c12` (stereo partly drawn) [Example 9-40, 4-(4-(2-oxa-5-azabicyclo[4.1.0]heptan-5-yl)-8-fluoro-2-(((2R,7aS)-2-fluorotetrahydro-1H-pyrrolizin-7a(5H)-yl)methoxy)-5-methoxypyrido[4,3-d]pyrimidin-7-yl)-5-ethynyl-6-fluoronaphthalen-2-ol] gave an IC50 against KRAS G12D [2] of 6 nM. Turning to `CN1CCC[C@@]2(COc3nc(N4CCC[C@@](C)(O)C4)c4cnc(-c5cnc(OC(F)F)c6ccccc56)c(F)c4n3)CCC[C@@H]12` [Example 10-7, (3R)-1-(2-{[(4aS,7aR)-1-methyl-octahydro-1H-cyclopenta[b]pyridin-4a-yl]methoxy}-7-[1-(difluoromethoxy)isoquinolin-4-yl]-8-fluoropyrido[4,3-d]pyrimidin-4-yl)-3-methylpiperidin-3-ol], the concentration for half-maximal inhibition (IC50) against KRAS G12D [1] and at KRAS G12D [2] was over 100000 nM throughout. In the case of `C#Cc1c(F)ccc2cc(O)cc(-c3ncc4c(N5CCCC(C#N)C5)nc(OCC5(CN6CCC(F)CC6)CC5)nc4c3F)c12` (single isomer, unassigned) [Example 1-44, 1-[7-(8-ethynyl-7-fluoro-3-hydroxynaphthalen-1-yl)-8-fluoro-2-({1-[(4-fluoropiperidin-1-yl)methyl]cyclopropyl}methoxy)pyrido [4,3-d]pyrimidin-4-yl]piperidine-3-carbonitrile], the IC50 is over 100000 nM against KRAS G12D [1] and 19100 nM against KRAS G12D [2].

In turn, `C#Cc1c(F)ccc2cc(O)cc(-c3nc(OC)c4c(N5CCC[C@](O)(CF)C5)nc(OC[C@]56CCC[C@H]5N(C)CCC6)nc4c3F)c12` [Example 9-26, (R)-1-(7-(8-ethynyl-7-fluoro-3-hydroxynaphthalen-1-yl)-8-fluoro-5-methoxy-2-(((4aS,7aR)-1-methyloctahydro-4aH-cyclopenta[b]pyridin-4a-yl)methoxy)pyrido[4,3-d]pyrimidin-4-yl)-3-(fluoromethyl)piperidin-3-ol] had an IC50 against KRAS G12D [2] of 6 nM. `C#Cc1c(F)ccc2cc(O)cc(-c3ncc4c(N5CCOCCC5C)nc(OC[C@]56CCC[C@H]5N(C)CCC6)nc4c3F)c12` (single isomer, unassigned) [Example 1-142] came in with an IC50 at KRAS G12D [1] of 560 nM.

Consider `C#Cc1c(F)ccc2cc(O)cc(-c3ccc4c(N5CC6C(C5)C6(C)C)nc(OC[C@@]56CCCN5C[C@H](F)C6)nc4c3F)c12` (stereo partly drawn) [Example 2-11, 4-(2-{[(2R,7aS)-2-fluoro-hexahydro-1H-pyrrolizin-7a-yl]methoxy}-4-{6,6-dimethyl-3-azabicyclo[3.1.0]hexan-3-yl}-8-fluoroquinazolin-7-yl)-5-ethynyl-6-fluoronaphthalen-2-ol], for which the IC50 against KRAS G12D [1] stood at 2620 nM; against KRAS G12D [2], 2610 nM.

As for `C#Cc1c(F)ccc2cc(O)cc(-c3ccc4c(N5CC6CCC(C5)N6C(=O)C5CC(F)(F)C5)nc(OC[C@@]56CCCN5C[C@H](F)C6)nc4c3F)c12` [Example 7-4, 4-(2-{[(2R,7aS)-2-fluoro-hexahydro-1H-pyrrolizin-7a-yl]methoxy}-4-[8-(3,3-difluorocyclobutanecarbonyl)-3,8-diazabicyclo[3.2.1]octan-3-yl]-8-fluoroquinazolin-7-yl)-5-ethynyl-6-fluoronaphthalen-2-ol], the figures for the IC50 on KRAS G12D [1] and at KRAS G12D [2] were 6600 nM and under 2 nM, respectively. The matching figures for `C#Cc1c(F)ccc2cc(O)cc(-c3ncc4c(N5CCCC(CO)C5)nc(OC[C@@]56CCCN5C[C@H](F)C6)nc4c3F)c12` (single isomer, unassigned) [Example 1-63]: at least 100000 nM and 12800 nM.

On to `C#Cc1c(F)ccc2cc(O)cc(-c3ncc4c(N5C[C@@H](C)O[C@@H](C)C5)nc(OC[C@]56CCC[C@H]5N(C)CCC6)nc4c3F)c12` [Example 1-12, 4-(2-{[(4aS,7aR)-1-methyl-octahydro-1H-cyclopenta[b]pyridin-4a-yl]methoxy}-4-[(2R,6S)-2,6-dimethylmorpholin-4-yl]-8-fluoropyrido[4,3-d]pyrimidin-7-yl)-5-ethynyl-6-fluoronaphthalen-2-ol], for which the IC50 on KRAS G12D [1] is 1000 nM; against KRAS G12D [2] it was under 2 nM. The matching figures for `C#Cc1c(F)ccc2cc(O)cc(-c3ncc4c(N5CCCOCC5)nc(OC[C@@]56C[C@@H](F)CN5CC5(CC5)C6)nc4c3F)c12` [Example 1-106, 4-(2-{[(6′R,7′aR)-6′-fluoro-hexahydrospiro [cyclopropane-1,2′-pyrrolizine]-7′a-yl]methoxy}-8-fluoro-4-(1,4-oxazepan-4-yl)pyrido[4,3-d]pyrimidin-7-yl)-5-ethynyl-6-fluoronaphthalen-2-ol]: 10 nM and 10 nM. With `C#Cc1c(F)ccc2cc(O)cc(-c3ncc4c(N5C[C@H]6C[C@@H]5CO6)nc(OC[C@@]56CCCN5C[C@H](F)C6)nc4c3F)c12` [Example 1-37, 4-(2-{[(2R,7aS)-2-fluoro-hexahydro-1H-pyrrolizin-7a-yl]methoxy}-8-fluoro-4-[(1R,4R)-2-oxa-5-azabicyclo[2.2.1]heptan-5-yl]pyrido[4,3-d]pyrimidin-7-yl)-5-ethynyl-6-fluoronaphthalen-2-ol], the IC50 came out at 54.5 nM at KRAS G12V, 16.6 nM at KRAS G12C and 10.5 nM at KRAS G12A. For the compound `C#Cc1c(F)ccc2cc(O)cc(-c3ncc4c(N5CCOCCC5C)nc(OC[C@]56CCC[C@H]5N(C)CCC6)nc4c3F)c12` (stereo partly drawn) [Example 1-93, 4-(2-{[(4aS,7aR)-1-methyl-octahydro-1H-cyclopenta [b]pyridin-4a-yl]methoxy}-8-fluoro-4-(5-methyl-1,4-oxazepan-4-yl)pyrido[4,3-d]pyrimidin-7-yl)-5-ethynyl-6-fluoronaphthalen-2-ol], the IC50 on KRAS G12D [1] is 190 nM.
